Square brackets hold non-standard residues; d marks the D form. Peptide text beside a SMILES is read from it. * marks the point of attachment. ξ: configuration not given here. Dansyl = CN(C)c1cccc2c(S(=O)(=O)*)cccc12; ξL = CC(C)CC(N)C(=O)O

The assay relates to receptor labeled by the radioiodinated analogue of 1 (4, [125I]-YLFQPQRF-NH2); neuropeptide FF receptor. In words: Competitive radioligand binding against 4 ([125I]Y8F-amide). Particulars: mixture-based positional scanning; difference from averaged radioligand displacement of whole library (0); about 80 a.u. = 10-fold change in Ki. On the technique in general: Displacement assays read how much labelled ligand stays bound in the presence of the test substance.
Consider `C[C@H](NC(=O)[C@H](Cc1ccccc1)NS(=O)(=O)c1cccc2c(N(C)C)cccc12)C(=O)N[C@@H](CCCNC(=N)N)C(N)=O` [Dansyl-FAR-amide] (Dansyl-Phe-Ala-Arg-NH2), for which the “Relative Binding Index (RBI)” value was −40 a.u.

In the case of `CN(C)c1cccc2c(S(=O)(=O)N[C@@H](CCCNC(=N)N)C(=O)N[C@@H](CO)C(=O)N[C@@H](CCCNC(=N)N)C(N)=O)cccc12` [Dansyl-RSR-amide] (Dansyl-Arg-Ser-Arg-NH2), the “Relative Binding Index (RBI)” value is listed as 27 a.u.

Consider `CN(C)c1cccc2c(S(=O)(=O)N[C@@H](Cc3c[nH]c4ccccc34)C(=O)N[C@@H](CCC(N)=O)C(=O)N[C@@H](CCCNC(=N)N)C(N)=O)cccc12` [Dansyl-WQR-amide] (Dansyl-Trp-Gln-Arg-NH2), for which the “Relative Binding Index (RBI)” value amounted to 22 a.u.

Turning to `CN(C)c1cccc2c(S(=O)(=O)N[C@@H](CO)C(=O)N[C@@H](Cc3ccccc3)C(=O)N[C@@H](CCCNC(=N)N)C(N)=O)cccc12` [Dansyl-SFR-amide] (Dansyl-Ser-Phe-Arg-NH2), the “Relative Binding Index (RBI)” value was determined as 15 a.u.

Consider `CC(C)[C@H](NS(=O)(=O)c1cccc2c(N(C)C)cccc12)C(=O)N[C@@H](CC(=O)O)C(=O)N[C@@H](CCCNC(=N)N)C(N)=O` [Dansyl-VDR-amide] (Dansyl-Val-Asp-Arg-NH2), for which the “Relative Binding Index (RBI)” value is listed as −22 a.u.

Turning to `CN(C)c1cccc2c(S(=O)(=O)N[C@@H](CCC(=O)O)C(=O)N[C@@H](Cc3ccc(O)cc3)C(=O)N[C@@H](CCCNC(=N)N)C(N)=O)cccc12` [Dansyl-EYR-amide] (Dansyl-Glu-Tyr-Arg-NH2), the “Relative Binding Index (RBI)” value is 15 a.u.

For `C[C@@H](O)[C@H](NC(=O)[C@H](CO)NS(=O)(=O)c1cccc2c(N(C)C)cccc12)C(=O)N[C@@H](CCCNC(=N)N)C(N)=O` [Dansyl-STR-amide] (Dansyl-Ser-Thr-Arg-NH2), the “Relative Binding Index (RBI)” value was 22 a.u.

On to `CN(C)c1cccc2c(S(=O)(=O)N[C@@H](CC(N)=O)C(=O)N[C@@H](Cc3ccc(O)cc3)C(=O)N[C@@H](CCCNC(=N)N)C(N)=O)cccc12` [Dansyl-NYR-amide] (Dansyl-Asn-Tyr-Arg-NH2), for which the “Relative Binding Index (RBI)” value came to 12 a.u.

With `CC(C)C[C@H](NS(=O)(=O)c1cccc2c(N(C)C)cccc12)C(=O)N[C@@H](C)C(=O)N[C@@H](CCCNC(=N)N)C(N)=O` [Dansyl-LAR-amide] (Dansyl-Leu-Ala-Arg-NH2), the “Relative Binding Index (RBI)” value is recorded as −81 a.u.

In the case of `C[C@@H](O)[C@H](NC(=O)[C@H](CC(N)=O)NS(=O)(=O)c1cccc2c(N(C)C)cccc12)C(=O)N[C@@H](CCCNC(=N)N)C(N)=O` [Dansyl-NTR-amide] (Dansyl-Asn-Thr-Arg-NH2), the “Relative Binding Index (RBI)” value stood at 18 a.u.

Turning to `C[C@H](NC(=O)CNS(=O)(=O)c1cccc2c(N(C)C)cccc12)C(=O)N[C@@H](CCCNC(=N)N)C(N)=O` [Dansyl-GAR-amide] (Dansyl-Gly-Ala-Arg-NH2), the “Relative Binding Index (RBI)” value was −24 a.u.

Consider `CSCC[C@H](NC(=O)[C@H](Cc1ccc(O)cc1)NS(=O)(=O)c1cccc2c(N(C)C)cccc12)C(=O)N[C@@H](CCCNC(=N)N)C(N)=O` [Dansyl-YMR-amide] (Dansyl-Tyr-Met-Arg-NH2), for which the “Relative Binding Index (RBI)” value worked out at 7 a.u.

Turning to `CC(C)C[C@H](NC(=O)[C@H](CCC(N)=O)NS(=O)(=O)c1cccc2c(N(C)C)cccc12)C(=O)N[C@@H](CCCNC(=N)N)C(N)=O` [Dansyl-QLR-amide] (Dansyl-Gln-Leu-Arg-NH2), the “Relative Binding Index (RBI)” value was 13 a.u.

For the compound `CC[C@H](C)[C@H](NS(=O)(=O)c1cccc2c(N(C)C)cccc12)C(=O)N[C@@H](CCC(=O)O)C(=O)N[C@@H](CCCNC(=N)N)C(N)=O` [Dansyl-IER-amide] (Dansyl-Ile-Glu-Arg-NH2), the “Relative Binding Index (RBI)” value is recorded as −11 a.u.

For the compound `C[C@@H](O)[C@H](NS(=O)(=O)c1cccc2c(N(C)C)cccc12)C(=O)N[C@@H](CCC(=O)O)C(=O)N[C@@H](CCCNC(=N)N)C(N)=O` [Dansyl-TER-amide] (Dansyl-Thr-Glu-Arg-NH2), the “Relative Binding Index (RBI)” value was −8 a.u.

As to `CN(C)c1cccc2c(S(=O)(=O)N[C@@H](Cc3ccccc3)C(=O)NCC(=O)N[C@@H](CCCNC(=N)N)C(N)=O)cccc12` [Dansyl-FGR-amide] (Dansyl-Phe-Gly-Arg-NH2), the “Relative Binding Index (RBI)” value stood at 15 a.u.

Turning to `CC(C)C[C@H](NS(=O)(=O)c1cccc2c(N(C)C)cccc12)C(=O)N[C@@H](Cc1cnc[nH]1)C(=O)N[C@@H](CCCNC(=N)N)C(N)=O` [Dansyl-LHR-amide] (Dansyl-Leu-His-Arg-NH2), the “Relative Binding Index (RBI)” value is given as −38 a.u.

Consider `CN(C)c1cccc2c(S(=O)(=O)N[C@@H](CCC(=O)O)C(=O)N[C@@H](CCCCN)C(=O)N[C@@H](CCCNC(=N)N)C(N)=O)cccc12` [Dansyl-EKR-amide] (Dansyl-Glu-Lys-Arg-NH2), for which the “Relative Binding Index (RBI)” value is 14 a.u.

With `CN(C)c1cccc2c(S(=O)(=O)N[C@@H](CCCCN)C(=O)N[C@@H](CCC(N)=O)C(=O)N[C@@H](CCCNC(=N)N)C(N)=O)cccc12` [Dansyl-KQR-amide] (Dansyl-Lys-Gln-Arg-NH2), the “Relative Binding Index (RBI)” value is recorded as 38 a.u.

Take `CN(C)c1cccc2c(S(=O)(=O)N[C@@H](Cc3c[nH]cn3)C(=O)N[C@@H](Cc3ccc(O)cc3)C(=O)N[C@@H](CCCNC(=N)N)C(N)=O)cccc12` [Dansyl-HYR-amide] (Dansyl-His-Tyr-Arg-NH2): the “Relative Binding Index (RBI)” value is listed as 16 a.u.

Turning to `C[C@@H](O)[C@H](NC(=O)[C@H](CC(=O)O)NS(=O)(=O)c1cccc2c(N(C)C)cccc12)C(=O)N[C@@H](CCCNC(=N)N)C(N)=O` [Dansyl-DTR-amide] (Dansyl-Asp-Thr-Arg-NH2), the “Relative Binding Index (RBI)” value was 0 a.u.

Regarding `CN(C)c1cccc2c(S(=O)(=O)N[C@@H](Cc3c[nH]c4ccccc34)C(=O)N[C@@H](CC(N)=O)C(=O)N[C@@H](CCCNC(=N)N)C(N)=O)cccc12` [Dansyl-WNR-amide] (Dansyl-Trp-Asn-Arg-NH2), the “Relative Binding Index (RBI)” value amounted to 10 a.u.

As to `CC(C)[C@H](NC(=O)[C@H](CCC(N)=O)NS(=O)(=O)c1cccc2c(N(C)C)cccc12)C(=O)N[C@@H](CCCNC(=N)N)C(N)=O` [Dansyl-QVR-amide] (Dansyl-Gln-Val-Arg-NH2), the “Relative Binding Index (RBI)” value was 17 a.u.

`CN(C)c1cccc2c(S(=O)(=O)NCC(=O)N[C@@H](CCCCN)C(=O)N[C@@H](CCCNC(=N)N)C(N)=O)cccc12` [Dansyl-GKR-amide] (Dansyl-Gly-Lys-Arg-NH2): the “Relative Binding Index (RBI)” value was found to be 23 a.u.

Regarding `CC(C)C[C@H](NC(=O)[C@H](CCCNC(=N)N)NS(=O)(=O)c1cccc2c(N(C)C)cccc12)C(=O)N[C@@H](CCCNC(=N)N)C(N)=O` [Dansyl-RLR-amide], the “Relative Binding Index (RBI)” value is recorded as −2 a.u.

`CC(C)C[C@H](NC(=O)[C@H](Cc1ccc(O)cc1)NS(=O)(=O)c1cccc2c(N(C)C)cccc12)C(=O)N[C@@H](CCCNC(=N)N)C(N)=O` [Dansyl-YLR-amide] (Dansyl-Tyr-Leu-Arg-NH2): the “Relative Binding Index (RBI)” value is −1 a.u.

Take `C[C@@H](O)[C@H](NS(=O)(=O)c1cccc2c(N(C)C)cccc12)C(=O)NCC(=O)N[C@@H](CCCNC(=N)N)C(N)=O` [Dansyl-TGR-amide] (Dansyl-Thr-Gly-Arg-NH2): the “Relative Binding Index (RBI)” value is −3 a.u.

`CC(C)[C@H](NC(=O)[C@H](CCCNC(=N)N)NS(=O)(=O)c1cccc2c(N(C)C)cccc12)C(=O)N[C@@H](CCCNC(=N)N)C(N)=O` [Dansyl-RVR-amide] (Dansyl-Arg-Val-Arg-NH2): the “Relative Binding Index (RBI)” value stood at 2 a.u.

`CC(C)C[C@H](NS(=O)(=O)c1cccc2c(N(C)C)cccc12)C(=O)N[C@@H](CO)C(=O)N[C@@H](CCCNC(=N)N)C(N)=O` [Dansyl-LSR-amide] (Dansyl-Leu-Ser-Arg-NH2): the “Relative Binding Index (RBI)” value is −11 a.u.

Turning to `CN(C)c1cccc2c(S(=O)(=O)N[C@@H](Cc3c[nH]c4ccccc34)C(=O)N[C@@H](CCCCN)C(=O)N[C@@H](CCCNC(=N)N)C(N)=O)cccc12` [Dansyl-WKR-amide] (Dansyl-Trp-Lys-Arg-NH2), the “Relative Binding Index (RBI)” value was found to be 6 a.u.

With `CSCC[C@H](NS(=O)(=O)c1cccc2c(N(C)C)cccc12)C(=O)N[C@@H](Cc1c[nH]c2ccccc12)C(=O)N[C@@H](CCCNC(=N)N)C(N)=O` [Dansyl-MWR-amide] (Dansyl-Met-Trp-Arg-NH2), the “Relative Binding Index (RBI)” value is listed as −35 a.u.

On to `CC(C)CC(NC(=O)[C@H](Cc1ccccc1)NS(=O)(=O)c1cccc2c(N(C)C)cccc12)C(=O)N[C@@H](CCCNC(=N)N)C(N)=O` (some centres unmarked) [Dansyl-FLR-amide] (Dansyl-Phe-[ξL]-Arg-NH2), for which the “Relative Binding Index (RBI)” value amounted to 1 a.u.

As to `CC(C)[C@H](NS(=O)(=O)c1cccc2c(N(C)C)cccc12)C(=O)N[C@@H](C)C(=O)N[C@@H](CCCNC(=N)N)C(N)=O` [Dansyl-VAR-amide] (Dansyl-Val-Ala-Arg-NH2), the “Relative Binding Index (RBI)” value is reported as −53 a.u.

In the case of `CN(C)c1cccc2c(S(=O)(=O)N[C@@H](CCCNC(=N)N)C(=O)N[C@@H](Cc3ccccc3)C(=O)N[C@@H](CCCNC(=N)N)C(N)=O)cccc12` [Dansyl-RFR-amide] (Dansyl-Arg-Phe-Arg-NH2), the “Relative Binding Index (RBI)” value is reported as 5 a.u.

For `CN(C)c1cccc2c(S(=O)(=O)N3CCC[C@H]3C(=O)N3CCC[C@H]3C(=O)N[C@@H](CCCNC(=N)N)C(N)=O)cccc12` [Dansyl-PPR-amide] (Dansyl-Pro-Pro-Arg-NH2), the “Relative Binding Index (RBI)” value is reported as −45 a.u.

Turning to `C[C@@H](O)[C@H](NS(=O)(=O)c1cccc2c(N(C)C)cccc12)C(=O)N[C@@H](CCCCN)C(=O)N[C@@H](CCCNC(=N)N)C(N)=O` [Dansyl-TKR-amide] (Dansyl-Thr-Lys-Arg-NH2), the “Relative Binding Index (RBI)” value is given as −11 a.u.

On to `CN(C)c1cccc2c(S(=O)(=O)N[C@@H](Cc3ccccc3)C(=O)N[C@@H](Cc3cnc[nH]3)C(=O)N[C@@H](CCCNC(=N)N)C(N)=O)cccc12` [Dansyl-FHR-amide] (Dansyl-Phe-His-Arg-NH2), for which the “Relative Binding Index (RBI)” value is listed as 4 a.u.

As for `CN(C)c1cccc2c(S(=O)(=O)N[C@@H](CO)C(=O)N[C@@H](CC(N)=O)C(=O)N[C@@H](CCCNC(=N)N)C(N)=O)cccc12` [Dansyl-SNR-amide] (Dansyl-Ser-Asn-Arg-NH2), the “Relative Binding Index (RBI)” value worked out at 18 a.u.

For the origin of these results see US6960574B2, “Antagonists of RF-amide neuropeptides” (University of Florida, priority 2002, dated 2005).
